Assays:
[1] = system: rat liver epithelial cell strains; assay: Colony formation assay of rat liver epithelial cell strains in Xs-free or Xs-containing medium; type: cell-based; settings: for Colony formation efficiency Xs+/Xs− Ratio: 50 μM xanthosine vs Xs-free medium; for Colony formation efficiency, Xs+ (Mean % ± SD; n = 6): 50 μM xanthosine, 14 days, 200 cells per well
From the text: Three Xs-free (“Xs-F”) cell strains and 8 Xs-derived (“Xs-D”) cell strains were chosen for cell kinetics analysis. Despite the similarities in their derivation course, there is a remarkable difference in the growth properties of Xs-F and Xs-D cell strains (see Table 1). […] This is a highly significance difference (p=0.004). […] The estimated mean increase in colony formation efficiency for Xs-D strains in Xs-containing medium is 11-fold, ranging from a 10% (Xs-D9; not statistically significant) to a 40-fold increase (Xs-D13; p<0.0001). The growth of Xs-F strains was unaffected by Xs even at the higher concentration of 100 μM (data not shown). [table]

[2] = system: adherent cells from long-term bone marrow cultures; assay: Soft agar colony formation by adherent cells from long-term bone marrow cultures; type: cell-based, mice; settings: adherent cells from cultures with 0.4 to 1.0 mM Xs
From the text: Because of the difficulties anticipated in cloning Xs-dependent cells from heterogenous long-term bone marrow cultures, we decided to adopt a soft agar culture strategy. It is well known that hematopoietic progenitor cells will form colonies when grown in semi-solid medium (Dexter et al., 1984). […] Instead, it simply reflects their natural ability to divide without anchorage. In many bone marrow cell studies, conditions are selected to induce bone marrow cell differentiation. Methyl-cellulose or soft agar supplemented with lineage-promoting growth factors are widely used experimental systems (Dexter et al., 1984). For ideal SACK, we wished to minimize stimuli for differentiation. Therefore, we used agar developed in routine horse serum-supplemented long-term culture medium, without any additional growth factor source, as the gel medium for our studies. We followed procedures developed for detecting anchorage-independent growth of transformed tumor cells.
Our plan was to evaluate SACK effects on soft agar colonies derived from fresh bone marrow. Therefore, we wished to relate the morphology of colonies that arose from fresh bone marrow cells to those that arose from LT-CFCs in long-term cultures. […] After 9 weeks of culture, when adherent cells were evaluated after washing and then removal with half-strength trypsin, only type II colonies were detected (frequency=19×10^−5). […]

[3] = system: p53-inducible model cells; settings: p53-inducible model cells (Sherley et al. 1995a, Liu et al. 1998a); cited from earlier work

With O=c1[nH]c(=O)c2ncn([C@@H]3O[C@H](CO)[C@@H](O)[C@H]3O)c2[nH]1 [Xs, xanthosine] the “Growth of Xs-F strains” value ([1]; Xs-F strains, even at the higher concentration of 100 μM, data not shown) was “unaffected”, the “Colony formation efficiency Xs+/Xs− Ratio” value ([1]; cell strain Xs-D4) was 1.5 and the “Colony formation efficiency, Xs+ (Mean % ± SD; n = 6)” value ([1]; cell strain Xs-D4) was 8.0 ± 1.1%. The “Colony formation efficiency Xs+/Xs− Ratio” value ([1]; cell strain Xs-D6) was 1.4, the “Colony formation efficiency, Xs+ (Mean % ± SD; n = 6)” value ([1]; cell strain Xs-D6) was 5.3 ± 1.8% and the “Colony formation efficiency Xs+/Xs− Ratio” value ([1]; cell strain Xs-D7) was “≧22”. For the same compound, the “Colony formation efficiency, Xs+ (Mean % ± SD; n = 6)” value ([1]; cell strain Xs-D7) was 6.7 ± 2.2%, the “Colony formation efficiency Xs+/Xs− Ratio” value ([1]; cell strain Xs-D8) was 17 and the “Colony formation efficiency, Xs+ (Mean % ± SD; n = 6)” value ([1]; cell strain Xs-D8) was 22 ± 3.6%. For the same compound, the “Colony formation efficiency Xs+/Xs− Ratio” value ([1]; cell strain Xs-D9) was 1.1, the “Colony formation efficiency, Xs+ (Mean % ± SD; n = 6)” value ([1]; cell strain Xs-D9) was 11 ± 2.6% and the “Colony formation efficiency Xs+/Xs− Ratio” value ([1]; cell strain Xs-D13) was 40. For the same compound, the “Colony formation efficiency, Xs+ (Mean % ± SD; n = 6)” value ([1]; cell strain Xs-D13) was 12 ± 2.7%, the “Colony formation efficiency Xs+/Xs− Ratio” value ([1]; cell strain Xs-D14) was 1.3 and the “Colony formation efficiency, Xs+ (Mean % ± SD; n = 6)” value ([1]; cell strain Xs-D14) was 0.4 ± 0.67%. The “Colony formation efficiency Xs+/Xs− Ratio” value ([1]; cell strain Xs-D15) was 5.3, the “Colony formation efficiency, Xs+ (Mean % ± SD; n = 6)” value ([1]; cell strain Xs-D15) was 10 ± 1.6% and the “Colony formation efficiency Xs+/Xs− Ratio” value ([1]; cell strain Xs-F1) was 0.9. The “Colony formation efficiency, Xs+ (Mean % ± SD; n = 6)” value ([1]; cell strain Xs-F1) was 9.8 ± 2.2%, the “Colony formation efficiency Xs+/Xs− Ratio” value ([1]; cell strain Xs-F2) was 1.0 and the “Colony formation efficiency, Xs+ (Mean % ± SD; n = 6)” value ([1]; cell strain Xs-F2) was 29 ± 3.7%. For the same compound, the “Colony formation efficiency Xs+/Xs− Ratio” value ([1]; cell strain Xs-F3) was 1.0, the “Colony formation efficiency, Xs+ (Mean % ± SD; n = 6)” value ([1]; cell strain Xs-F3) was 18 ± 3.7% and the “Estimated mean increase in colony formation efficiency for Xs-D strains in Xs-containing medium” value ([1]; mean of 8 Xs-D strains, Xs-containing vs Xs-free medium) was 11 fold. For the same compound, the “Increase in colony formation efficiency in Xs-containing medium” value ([1]; strain Xs-D9, not statistically significant) was 10%, the “Increase in colony formation efficiency in Xs-containing medium” value ([1]; strain Xs-D13, p<0.0001) was 40 fold and the “More type I colonies than control cultures (average)” value [2] was 35%. The “Suppression of asymmetric cell kinetics” value [3] was “can suppress the asymmetric cell kinetics”.

— US20030133918A1, “Methods for ex vivo propagation of somatic stem cells” (priority 2001, published 2003)
